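96-well plates; 48 h exposure; 5 concentrations. Endpoints by linear interpolation between flanking doses. Not reached: highest tested concentration assigned. Here, GI50 denotes the concentration required for 50% inhibition of growth.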 Activity calls are given as the source filed them. Rule as the data show it: active = GI50 up to about 1.1 µM and inactive = higher.
Key:
Assay in all cases: inhibition of tumour cell growth, NCI panel, 48 h
[1] = tested on: 786-0
[2] = tested on: A498
[3] = tested on: DU-145
[4] = tested on: HCC 2998
[5] = tested on: HCT-116
[6] = tested on: HT-29
[7] = tested on: K562
[8] = tested on: KM12
[9] = tested on: LOX IMVI
[10] = tested on: M14
[11] = tested on: MDA-MB-435
[12] = tested on: NCI-H460
[13] = tested on: NCI/ADR-RES
[14] = tested on: OVCAR-3
[15] = tested on: PC-3
[16] = tested on: SF-268
[17] = tested on: SF-295
[18] = tested on: SK-MEL-28
[19] = tested on: SK-MEL-2
[20] = tested on: UACC-257

Row | SMILES | GI50 [1] | GI50 [2] | GI50 [3] | GI50 [4] | GI50 [5] | GI50 [6] | GI50 [7] | GI50 [8] | GI50 [9] | GI50 [10] | GI50 [11] | GI50 [12] | GI50 [13] | GI50 [14] | GI50 [15] | GI50 [16] | GI50 [17] | GI50 [18] | GI50 [19] | GI50 [20]
1 | COc1cc([N+](=O)[O-])cc2c1NC(=O)C2(C)SC (stereo unspecified) | > 100 µM (inactive) | > 100 µM (inactive) | > 100 µM (inactive) | > 100 µM (inactive) | 36.7 µM (inactive) | > 100 µM (inactive) | 34.4 µM (inactive) | > 100 µM (inactive) | 88.1 µM (inactive) | 52.8 µM (inactive) | 53.1 µM (inactive) | > 100 µM (inactive) | 94.6 µM (inactive) | 77.3 µM (inactive) | > 100 µM (inactive) | > 100 µM (inactive) | 63.7 µM (inactive) | > 100 µM (inactive) | 60.7 µM (inactive) | > 100 µM (inactive)
2 | OCCOCn1nncc1Cn1ncc2c(O)ncnc21 | 52 µM (inactive) | > 100 µM (inactive) | 43.7 µM (inactive) | > 100 µM (inactive) | > 100 µM (inactive) | 40 µM (inactive) | 43.6 µM (inactive) | 32.6 µM (inactive) | 74.3 µM (inactive) | > 100 µM (inactive) | 26.9 µM (inactive) | 49.4 µM (inactive) | > 100 µM (inactive) | 28.6 µM (inactive) | 55.1 µM (inactive) | > 100 µM (inactive) | > 100 µM (inactive) | > 100 µM (inactive) | 54.1 µM (inactive) | > 100 µM (inactive)
3 | O=C1N/N=C\Nc2ccc(cc2)S(=O)(=O)c2ccc(cc2)/N=C\NNC1=O | > 100 µM (inactive) | 20 µM (inactive) | > 100 µM (inactive) | > 100 µM (inactive) | > 100 µM (inactive) | > 100 µM (inactive) | > 100 µM (inactive) | > 100 µM (inactive) | > 100 µM (inactive) | > 100 µM (inactive) | > 100 µM (inactive) | > 100 µM (inactive) | > 100 µM (inactive) | > 100 µM (inactive) | > 100 µM (inactive) | > 100 µM (inactive) | > 100 µM (inactive) | > 100 µM (inactive) | > 100 µM (inactive) | > 100 µM (inactive)
4 | COc1cc2c(/C=C3/C(=O)N(C)c4ccc(O)cc43)c(Cl)[nH]c2cc1C | 0.362 µM (active) | 2.06 µM (inactive) | 0.655 µM (active) | 0.373 µM (active) | 0.361 µM (active) | 0.401 µM (active) | 0.124 µM (active) | 0.356 µM (active) | 0.594 µM (active) | 0.238 µM (active) | 0.0284 µM (active) | 0.454 µM (active) | 0.703 µM (active) | 0.246 µM (active) | 1.38 µM (inactive) | 2.07 µM (inactive) | 0.262 µM (active) | 2.22 µM (inactive) | 0.641 µM (active) | 2.25 µM (inactive)
5 | CN1c2ccc(O)c(O)c2-c2cc(O)cc3c2C1CCC3 (stereo unspecified) | 15.2 µM (inactive) | > 76.2 µM (inactive) | 16 µM (inactive) | 20.5 µM (inactive) | 14.6 µM (inactive) | 19.1 µM (inactive) | 14.4 µM (inactive) | 21.4 µM (inactive) | 11.2 µM (inactive) | 16.2 µM (inactive) | 15.6 µM (inactive) | 23.9 µM (inactive) | 18 µM (inactive) | 4.55 µM (inactive) | 19.2 µM (inactive) | 14.2 µM (inactive) | 57.7 µM (inactive) | 20.8 µM (inactive) | 24 µM (inactive) | 19.1 µM (inactive)
6 | N=C1N(S(=O)(=O)c2ccccc2)[C@@H](Cc2ccccc2)[C@H](c2ccccc2)C1(c1ccccc1)c1ccccc1 | > 100 µM (inactive) | > 100 µM (inactive) | > 100 µM (inactive) | 27.2 µM (inactive) | 40.4 µM (inactive) | > 100 µM (inactive) | 71.1 µM (inactive) | 31.4 µM (inactive) | > 100 µM (inactive) | > 100 µM (inactive) | > 100 µM (inactive) | 36.7 µM (inactive) | 70.1 µM (inactive) | 10.4 µM (inactive) | 9.62 µM (inactive) | > 100 µM (inactive) | > 100 µM (inactive) | > 100 µM (inactive) | > 100 µM (inactive) | 35.6 µM (inactive)
7 | OC(C1=C/C(=C\c2ccncc2)c2ccccc21)c1ccncc1 (stereo unspecified) | 12.9 µM (inactive) | 12.9 µM (inactive) | 17 µM (inactive) | 8.39 µM (inactive) | 13.6 µM (inactive) | 11.8 µM (inactive) | 4.72 µM (inactive) | 15.6 µM (inactive) | 12.1 µM (inactive) | 12.4 µM (inactive) | 12 µM (inactive) | 12.9 µM (inactive) | 14.6 µM (inactive) | 11.1 µM (inactive) | 10.8 µM (inactive) | 18.5 µM (inactive) | 8.65 µM (inactive) | 14.3 µM (inactive) | 14.3 µM (inactive) | 6.34 µM (inactive)
8 | Cc1cccc(Nc2cnc(N)nc2N)c1 | > 100 µM (inactive) | > 100 µM (inactive) | > 100 µM (inactive) | > 100 µM (inactive) | > 100 µM (inactive) | > 100 µM (inactive) | > 100 µM (inactive) | > 100 µM (inactive) | > 100 µM (inactive) | > 100 µM (inactive) | > 100 µM (inactive) | – | > 100 µM (inactive) | > 100 µM (inactive) | > 100 µM (inactive) | – | > 100 µM (inactive) | > 100 µM (inactive) | > 100 µM (inactive) | > 100 µM (inactive)
9 | O=C(n1c(=O)n(-c2ccc(Cl)cc2)c(=O)n1C(=O)C(Cl)(Cl)Cl)C(Cl)(Cl)Cl | > 100 µM (inactive) | > 100 µM (inactive) | > 100 µM (inactive) | > 100 µM (inactive) | > 100 µM (inactive) | > 100 µM (inactive) | 21.4 µM (inactive) | 82.8 µM (inactive) | > 100 µM (inactive) | – | 31.6 µM (inactive) | > 100 µM (inactive) | 43.5 µM (inactive) | > 100 µM (inactive) | > 100 µM (inactive) | 50 µM (inactive) | > 100 µM (inactive) | > 100 µM (inactive) | > 100 µM (inactive) | > 100 µM (inactive)
10 | CCOC(=O)CCC(NC(=O)c1ccc(N2CCN(c3c(C)nc(N)nc3N)CC2)cc1)C(=O)OCC (stereo unspecified) | 0.0929 µM (active) | 65.2 µM (inactive) | > 100 µM (inactive) | 10.6 µM (inactive) | 0.0527 µM (active) | 3.15 µM (inactive) | < 0.01 µM (active) | 1.43 µM (inactive) | 0.513 µM (active) | 1.32 µM (inactive) | 0.251 µM (active) | 6.53 µM (inactive) | 7.43 µM (inactive) | > 21.2 µM (inactive) | 0.0398 µM (active) | 0.757 µM (active) | – | > 31.6 µM (inactive) | > 100 µM (inactive) | 15.6 µM (inactive)

Reference: ChEMBL document CHEMBL1201862, “PubChem BioAssay data set” (2004)
